Test results taken from PubChem BioAssay (NCI).
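Protocol summary: plate cells (96-well), add compound at 5 concentrations, incubate 48 h, interpolate endpoints linearly. At the GI50, growth is halved. TGI is the concentration that stops growth completely.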

Tests used:
Test in all cases: NCI-60 cell line screen, 48 h
[1] = tested on: K-562 leukemia
[2] = tested on: HCT-15 colon
[3] = tested on: TK-10 renal
[4] = tested on: SK-MEL-5 melanoma
[5] = tested on: SW-620 colon
[6] = tested on: NCI-H460 lung
[7] = tested on: BT-549 breast
[8] = tested on: A549 NSCLC
[9] = tested on: SF-295 CNS
[10] = tested on: MDA-N
[11] = tested on: HT29 colon
[12] = tested on: SNB-75 CNS
[13] = tested on: MDA-MB-231 breast
[14] = tested on: U251 CNS
[15] = tested on: M14 melanoma
[16] = tested on: RPMI-8226 leukemia
[17] = tested on: MDA-MB-435
[18] = tested on: HOP-92 NSCLC
[19] = tested on: SK-MEL-2 melanoma
[20] = tested on: SR leukemia
[21] = tested on: 786-0 renal
[22] = tested on: RXF 393 renal
[23] = tested on: SF-268 CNS
[24] = tested on: NCI-H226 lung
[25] = tested on: IGROV1 ovarian
[26] = tested on: CCRF-CEM leukemia
[27] = tested on: MOLT-4 leukemia
[28] = tested on: SN12C renal
[29] = tested on: SK-OV-3 ovarian
[30] = tested on: LOX IMVI melanoma
[31] = tested on: UO-31 renal
[32] = tested on: SF-539 CNS
[33] = tested on: HOP-62 NSCLC
[34] = tested on: COLO 205 colon
[35] = tested on: SNB-19 CNS
[36] = tested on: EKVX NSCLC
[37] = tested on: UACC-62 melanoma
[38] = tested on: NCI-H522 lung
[39] = tested on: OVCAR-8 ovarian
[40] = tested on: NCI-H23 lung
[41] = tested on: KM12 colon
[42] = tested on: CAKI-1 renal
[43] = tested on: ACHN renal
[44] = tested on: OVCAR-3 ovarian
[45] = tested on: HCT-116 colon
[46] = tested on: UACC-257 melanoma
[47] = tested on: MCF7 breast
[48] = tested on: OVCAR-5 ovarian
[49] = tested on: MALME-3M melanoma
[50] = tested on: OVCAR-4 ovarian
[51] = tested on: PC-3 prostate
[52] = tested on: NCI/ADR-RES ovarian
[53] = tested on: DU-145 prostate
[54] = tested on: HCC-2998 colon
[55] = tested on: SK-MEL-28 melanoma
[56] = tested on: HS 578T breast
[57] = tested on: HL-60(TB) leukemia
[58] = tested on: A498 renal
[59] = tested on: T-47D breast

With `OCC1C2CCC3(OCCO3)C12` (centres undefined) the TGI [1] was over 100 µM, the TGI [2] was over 100 µM and the TGI [3] was over 100 µM. The TGI [4] was over 100 µM, the TGI [5] was over 100 µM and the TGI [6] was over 100 µM. It also gave a TGI [7] of 35.6 µM, a TGI [8] of over 100 µM and a TGI [9] of over 100 µM. It also gave a TGI [10] of over 100 µM, a TGI [11] of over 100 µM and a TGI [12] of over 100 µM. For the same molecule, the TGI [13] was over 100 µM, the TGI [14] was over 100 µM and the TGI [15] was over 100 µM. For the same molecule, the TGI [16] was over 100 µM, the TGI [17] was over 100 µM and the TGI [18] was over 100 µM. The TGI [19] was over 100 µM, the TGI [20] was over 100 µM and the TGI [21] was over 100 µM. It also gave a TGI [22] of over 100 µM, a TGI [23] of over 100 µM and a TGI [24] of over 100 µM. It also gave a TGI [25] of over 100 µM, a TGI [26] of over 100 µM and a TGI [27] of over 100 µM. The TGI [28] was over 100 µM, the TGI [29] was over 100 µM and the TGI [30] was over 100 µM. For the same molecule, the TGI [31] was 29.6 µM, the TGI [32] was over 100 µM and the TGI [33] was over 100 µM. It also gave a TGI [34] of over 100 µM, a TGI [35] of over 100 µM and a TGI [36] of over 100 µM. The TGI [37] was 33 µM, the TGI [38] was over 100 µM and the TGI [39] was over 100 µM. For the same molecule, the TGI [40] was 33.7 µM, the TGI [41] was over 100 µM and the TGI [42] was over 100 µM. The TGI [43] was over 100 µM, the TGI [44] was over 100 µM and the TGI [45] was over 100 µM. For the same molecule, the TGI [46] was over 100 µM, the TGI [47] was over 100 µM and the TGI [48] was over 100 µM. For the same molecule, the TGI [49] was over 100 µM, the TGI [50] was over 100 µM and the TGI [51] was over 100 µM. For the same molecule, the TGI [52] was over 100 µM, the TGI [53] was over 100 µM and the TGI [54] was over 100 µM. It also gave a TGI [55] of over 100 µM.
With `CCOC(=O)Nc1ccc2nc(N3CCCCCC3)sc2c1` the GI50 [1] was 0.501 µM, the TGI [1] was over 72.6 µM and the GI50 [2] was 0.84 µM. It also gave a TGI [2] of over 46.2 µM, a GI50 [3] of 5.07 µM and a TGI [3] of over 91 µM. It also gave a GI50 [4] of 1.04 µM, a TGI [4] of 15.9 µM and a GI50 [5] of 0.567 µM. For the same molecule, the TGI [5] was over 100 µM, the GI50 [6] was 1.4 µM and the TGI [6] was over 38.7 µM. It also gave a GI50 [7] of 12 µM, a TGI [7] of 49.6 µM and a GI50 [8] of 3.32 µM. For the same molecule, the TGI [8] was over 100 µM, the GI50 [9] was 0.856 µM and the TGI [9] was 11.4 µM. The GI50 [11] was 0.44 µM, the TGI [11] was 9.87 µM and the GI50 [12] was 2.07 µM. For the same molecule, the TGI [12] was over 31.4 µM, the GI50 [13] was 3.19 µM and the TGI [13] was over 56.8 µM. The GI50 [56] was 4.53 µM, the TGI [56] was over 100 µM and the GI50 [14] was 1.09 µM. It also gave a TGI [14] of over 100 µM, a GI50 [15] of 0.719 µM and a TGI [15] of over 70.4 µM. The GI50 [16] was 3.33 µM, the TGI [16] was 26.3 µM and the GI50 [17] was 0.204 µM. The TGI [17] was 0.567 µM, the GI50 [18] was 6.15 µM and the TGI [18] was 58.9 µM. For the same molecule, the GI50 [19] was 2.67 µM, the TGI [19] was over 72.5 µM and the GI50 [20] was 0.405 µM. It also gave a TGI [20] of over 100 µM, a GI50 [21] of 6.86 µM and a TGI [21] of over 100 µM. It also gave a GI50 [22] of 1.99 µM, a TGI [22] of over 26.2 µM and a GI50 [23] of 8.25 µM. The TGI [23] was over 100 µM, the GI50 [24] was 12.3 µM and the TGI [24] was over 68 µM. For the same molecule, the GI50 [25] was 4.36 µM, the TGI [25] was over 100 µM and the GI50 [26] was 1.97 µM. It also gave a TGI [26] of over 100 µM, a GI50 [27] of 3.47 µM and a TGI [27] of over 92.9 µM. It also gave a GI50 [28] of 5.08 µM, a TGI [28] of over 100 µM and a GI50 [29] of 2.36 µM. It also gave a TGI [29] of over 72.8 µM, a GI50 [30] of 2.16 µM and a TGI [30] of over 100 µM. The GI50 [31] was 6.17 µM, the TGI [31] was 75.1 µM and the GI50 [32] was 1.59 µM. It also gave a TGI [32] of over 27.4 µM, a GI50 [33] of 3.75 µM and a TGI [33] of over 100 µM. For the same molecule, the GI50 [34] was 1.35 µM, the TGI [34] was over 59 µM and the GI50 [35] was 2.84 µM. For the same molecule, the TGI [35] was over 100 µM, the GI50 [36] was 5.14 µM and the TGI [36] was over 100 µM. For the same molecule, the GI50 [37] was 1.45 µM, the TGI [37] was over 100 µM and the GI50 [38] was 1.83 µM. For the same molecule, the TGI [38] was 13.2 µM, the GI50 [39] was 4.51 µM and the TGI [39] was over 63.4 µM. The GI50 [40] was 7.95 µM, the TGI [40] was over 100 µM and the GI50 [41] was 0.661 µM. It also gave a TGI [41] of over 57.5 µM, a GI50 [42] of 2.2 µM and a TGI [42] of over 59.5 µM. The GI50 [43] was 9.6 µM, the TGI [43] was over 74.1 µM and the GI50 [44] was 1.66 µM. It also gave a TGI [44] of 10.7 µM, a GI50 [45] of 0.573 µM and a TGI [45] of over 77.9 µM. For the same molecule, the GI50 [46] was 15.2 µM, the TGI [46] was 97.2 µM and the GI50 [47] was 0.857 µM. It also gave a TGI [47] of over 80.6 µM, a GI50 [48] of 8.28 µM and a TGI [48] of over 100 µM. It also gave a GI50 [49] of 1.35 µM, a TGI [49] of 55.7 µM and a GI50 [50] of 23.7 µM. For the same molecule, the TGI [50] was over 100 µM, the GI50 [51] was 3.49 µM and the TGI [51] was over 100 µM. It also gave a GI50 [57] of 0.436 µM, a TGI [57] of 21 µM and a GI50 [52] of 1.03 µM. It also gave a TGI [52] of over 36.6 µM, a GI50 [53] of 4 µM and a TGI [53] of over 83.3 µM. For the same molecule, the GI50 [58] was 2.1 µM, the TGI [58] was 32.2 µM and the GI50 [59] was 4.7 µM. The TGI [59] was over 84.3 µM, the GI50 [54] was 7.59 µM and the TGI [54] was 48 µM. For the same molecule, the GI50 [55] was 7.14 µM and the TGI [55] was over 91.7 µM.
With `CN(C)CCOc1ccc2[nH]c(C(=O)N3CC(CCl)c4c3cc([N+](=O)[O-])c3ccccc43)cc2c1` (centres undefined) the TGI [1] was over 100 µM, the TGI [5] was over 100 µM and the TGI [10] was 48.5 µM. It also gave a TGI [12] of 3.77 µM, a TGI [16] of over 100 µM and a TGI [24] of over 100 µM. The TGI [26] was over 100 µM, the TGI [29] was 85.5 µM and the TGI [30] was over 100 µM. It also gave a TGI [31] of over 100 µM, a TGI [34] of over 100 µM and a TGI [40] of over 100 µM. The TGI [41] was 3.2 µM, the TGI [44] was 3.68 µM and the TGI [51] was over 100 µM. The TGI [57] was over 100 µM, the TGI [53] was 20.2 µM and the TGI [58] was 24.5 µM.
